Measurements published in patent US9777005B2 (Takeda Pharmaceutical Company Limited, priority 2012, dated 2017).

Target: T1, human M1 receptor (hCHRM1) (Homo sapiens, UniProt P11229)
T1 construct: expressed in transfected cells; host or cells: CHO-K1
T1 sequence (P11229 1-460): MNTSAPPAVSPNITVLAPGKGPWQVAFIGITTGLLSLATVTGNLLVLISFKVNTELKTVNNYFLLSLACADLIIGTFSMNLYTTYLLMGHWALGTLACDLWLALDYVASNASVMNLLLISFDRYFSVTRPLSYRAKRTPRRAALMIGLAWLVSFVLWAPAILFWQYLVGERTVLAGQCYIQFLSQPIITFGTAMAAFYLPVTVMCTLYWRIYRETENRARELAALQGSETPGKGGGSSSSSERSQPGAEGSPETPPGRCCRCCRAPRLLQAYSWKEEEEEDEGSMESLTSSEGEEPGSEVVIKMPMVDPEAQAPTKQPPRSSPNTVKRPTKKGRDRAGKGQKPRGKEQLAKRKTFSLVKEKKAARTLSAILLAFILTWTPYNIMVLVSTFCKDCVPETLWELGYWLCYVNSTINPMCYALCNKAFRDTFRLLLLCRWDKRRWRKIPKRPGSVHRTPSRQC
Assay: Measurement of M1 receptor positive allosteric modulator (M1PAM) activity, calcium fluorescence (FLIPRtetra) in CHO-K1 cells in the presence of acetylcholine at EC20
Assay type: cell-based
Conditions: in the presence of acetylcholine at EC20 (final 0.6 nM), CHO-K1 cells expressing hCHRM1; for EC50: inflection point of M1PAM activity, read-out: IP value; for activity (%) at 10 μM: test compound 10 μM
Method: Measurement of M1 Receptor Positive Allosteric Modulator (M1PAM) Activity
The activity of a test compound in the presence of acetylcholine at EC20 concentration (final concentration 0.6 nM), which affords an action corresponding to 20% of the maximum activity, was measured as PAM activity. The method is as follows. CHO-K1 cells forcibly expressing a human M1 receptor (hCHRM1) were plated on a 384-well black clear bottom plate (BD Falcon) at 5,000 cells/well, and cultured in an incubator at 37° C., 5% CO2 for 1 day. The medium in the cell plate was removed, and assay buffer A (Recording medium (DOJINDO LABORATORIES), 0.1% BSA (Wako Pure Chemical Industries, Ltd.), 2.5 μg/mL Fluo-4 AM (DOJINDO LABORATORIES), 0.08% Pluronic F127 (DOJINDO LABORATORIES), 1.25 mM probenecid (DOJINDO LABORATORIES)) containing a calcium indicator was added at 30 μL/well. The cells were left standing in the incubator at 37° C., 5% CO2 for 30 min, and further left standing at room temperature for 30 min. A test compound prepared by diluting with assay buffer B (HBSS (Invitrogen), 20 mM HEPES (Invitrogen), 0.1% BSA) containing 2.4 nM acetylcholine was added at 10 μL/well, and the fluorescence was measured by FLIPRtetra (Molecular Devices) for 1 min every 1 second. With the definition that the amount of change in the fluorescence on addition of acetylcholine (final concentration 1 μM) is 100% and that on addition of DMSO instead of a test compound is 0%, the activity (%) of the test compound and the inflection point in the concentration-dependent curve of the test compound were calculated as IP values.

Row | SMILES | EC50 [nM] | activity (%) at 10 μM [%]
1 | O=C1c2c(O[C@@H]3CCCC[C@H]3O)ccc(F)c2CN1Cc1ccc(-n2cccn2)cc1 (relative stereo) [Example 223, 4-fluoro-7-((trans-2-hydroxycyclohexyl)oxy)-2-(4-(1H-pyrazol-1-yl)benzyl)isoindolin-1-one] | 19 | 103
2 | Cc1cc(-c2ccc(CN3Cc4cccc(O[C@H]5CCC[C@@H]5O)c4C3=O)cc2)ccn1 (relative stereo) [Example 224, 7-((trans-2-hydroxycyclopentyl)oxy)-2-(4-(2-methylpyridin-4-yl)benzyl)isoindolin-1-one] | 38 | 107
3 | Cc1nn(C)cc1-c1ccc(CN2Cc3ccnc(O[C@H]4CCC[C@@H]4O)c3C2=O)cc1 (relative stereo) [Example 227, 2-(4-(1,3-dimethyl-1H-pyrazol-4-yl)benzyl)-4-((trans-2-hydroxycyclopentyl)oxy)-1,2-dihydro-3H-pyrrolo[3,4-c]pyridin-3-one] | 10 | 99
4 | Cn1ccc(-c2ccc(CN3Cc4ccnc(O[C@H]5CCC[C@@H]5O)c4C3=O)c(F)c2)n1 (relative stereo) [Example 236, 2-(2-fluoro-4-(1-methyl-1H-pyrazol-3-yl)benzyl)-4-((trans-2-hydroxycyclopentyl)oxy)-1,2-dihydro-3H-pyrrolo[3,4-c]pyridin-3-one] | 10 | 109
5 | Cn1ccc(-c2ccc(CN3Cc4ccnc(O[C@H]5CCC[C@@H]5O)c4C3=O)cc2)n1 (relative stereo) [Example 237, 4-((trans-2-hydroxycyclopentyl)oxy)-2-(4-(1-methyl-1H-pyrazol-3-yl)benzyl)-1,2-dihydro-3H-pyrrolo[3,4-c]pyridin-3-one] | 23 | 108

More lines, now with the values ahead:

Row | EC50 [nM] | activity (%) at 10 μM [%] | SMILES
6 | 30 | 98 | Cc1nn(C)cc1-c1ccc(CN2Cc3cccc(O[C@H]4CCC[C@@H]4O)c3C2=O)cc1 (relative stereo) [Example 226, 2-(4-(1,3-dimethyl-1H-pyrazol-4-yl)benzyl)-7-((trans-2-hydroxycyclopentyl)oxy)isoindolin-1-one]
7 | 94 | 118 | O=C1c2c(ccc(F)c2O[C@H]2CCCC[C@@H]2O)CN1Cc1ccc(-n2cccn2)cc1 (relative stereo) [Example 228, 6-fluoro-7-((trans-2-hydroxycyclohexyl)oxy)-2-(4-(1H-pyrazol-1-yl)benzyl)isoindolin-1-one]
8 | 14 | 105 | Cn1cc(-c2ccc(CN3Cc4cccc(O[C@H]5CCC[C@@H]5O)c4C3=O)cc2)nn1 (relative stereo) [Example 235, 7-((trans-2-hydroxycyclopentyl)oxy)-2-(4-(1-methyl-1H-1,2,3-triazol-4-yl)benzyl)isoindolin-1-one]
9 | 16 | 104 | O=C1c2c(cc(F)cc2O[C@H]2CCCC[C@@H]2O)CN1Cc1ccc(-n2cccn2)cc1 (relative stereo) [Example 244, 5-fluoro-7-((trans-2-hydroxycyclohexyl)oxy)-2-(4-(1H-pyrazol-1-yl)benzyl)isoindolin-1-one]
10 | 2.1 | 94 | Cc1nn(C)cc1-c1ccc(CN2Cc3ccnc(O[C@H]4CCCC[C@@H]4O)c3C2=O)cc1 (relative stereo) [Example 267, 2-(4-(1,3-dimethyl-1H-pyrazol-4-yl)benzyl)-4-((trans-2-hydroxycyclohexyl)oxy)-1,2-dihydro-3H-pyrrolo[3,4-c]pyridin-3-one]
11 | 6.4 | 97 | Cn1ccc(-c2cc(F)c(CN3Cc4ccnc(O[C@H]5CCC[C@@H]5O)c4C3=O)c(F)c2)n1 (relative stereo) [Example 328, 2-(2,6-difluoro-4-(1-methyl-1H-pyrazol-3-yl)benzyl)-4-((trans-2-hydroxycyclopentyl)oxy)-1,2-dihydro-3H-pyrrolo[3,4-c]pyridin-3-one]
